Here are results for 45 compounds from US20260167656A1, “PHOSPHORAMIDATE COMPOUNDS AND USES THEREOF” (ALLORION THERAPEUTICS INC, priority 2022, published 2026).

In assay [1] the test system is non-small cell lung cancer cell line H460. Kind of assay: H460 proliferation assay in the presence of 3 uM ASP9521 (AKR1C3 specific inhibitor). It is filed as cell-based, human. The note with it: H460 cells, CellTiter-Glo, 72 hours, in the presence of 3 uM ASP9521 added 4 hours prior to compounds; read-out: CTG H460: Avg IC50 (nM) [Assay Condition: ASP9521]. The procedure, abridged:
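AKR1C3 blocked with 3 uM ASP9521 given 4 h ahead of test compounds. H460 cells, plated 24 h earlier, were then treated for 72 h at 37 °C in 5% CO2. CellTiter-Glo luminescence gave viability.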
Background: In ATP-based viability assays light output follows the ATP content of the culture.

The test system is the same in assay [2]. The assay is described as follows: In vitro human cancer cell line cytotoxicity (proliferation) assay in H460, CellTiter-Glo, 72 hours. It is filed as cell-based. The note with it: H460 cells, DMSO condition (no AKR1C3 inhibitor), read-out: CTG H460: Avg IC50 (nM) [Assay Condition: DMSO]. The method in brief: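 IC50s in nM come from CellTiter-Glo viability read after 72 h of compound exposure. Compounds went in from 10 mM DMSO stocks onto H460 cells, which had been plated at 3×10^3 per well and grown 24 h beforehand at 37 °C, 5% CO2.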

Structures are written as SMILES. A value given as a limit tells only on which side of the number the result lay.

Usually IC50 stands for the concentration at which inhibition is half-maximal. As for `O=[N+]([O-])c1ccc2c(c1Oc1cccc(OC(F)(F)F)c1)CC[C@@H]2OP(=O)(N1CC1)N1CC1` [Example 449], the IC50 was 570 nM in assay [1] and < 10 nM in assay [2].

`O=[N+]([O-])c1ccc2c(c1Oc1cccc(-n3ncnn3)c1)CC[C@H]2OP(=O)(N1CC1)N1CC1` [Example 437]: the IC50 in assay [1] is 235 nM; in assay [2] (Homo sapiens, NCI-H460, 72 h) it was < 10 nM.

Consider `CC(C)Oc1cccc(Oc2c([N+](=O)[O-])ccc3c2CCC3OP(=O)(N2CC2)N2CC2)c1` (racemic) [Example 451], for which the IC50 in assay [1] is 1030 nM; in assay [2], < 10 nM.

`CN1CCOc2ccc(Oc3cc4c(cc3[N+](=O)[O-])CCC4OP(=O)(N3CC3)N3CC3)cc2C1=O` (stereo not drawn) [Example 158]: the IC50 in assay [1] is 4680 nM; in assay [2] (Homo sapiens, NCI-H460, 72 h), 50 to 100 nM.

`Cc1csc(-c2ccc(Oc3c([N+](=O)[O-])ccc4c3CCC4OP(=O)(N3CC3)N3CC3)cc2)n1` (stereo not drawn) [Example 289]: the concentration for half-maximal inhibition (IC50) in assay [1] is 1090 nM; in assay [2], < 10 nM.

Regarding `Cc1cccc(-c2ccc(Oc3c([N+](=O)[O-])ccc4c3CCC4OP(=O)(N3CC3)N3CC3)cc2)n1` (racemic) [Example 277], the half-maximal inhibitory concentration (IC50) was 1530 nM in assay [1] and < 10 nM in assay [2].

With `Cc1noc(-c2ccc(Oc3c([N+](=O)[O-])ccc4c3CC[C@@H]4OP(=O)(N3CC3)N3CC3)cc2)n1` [Example 283], the IC50 is 1460 nM in assay [1] and < 10 nM in assay [2].

Consider `O=C(c1cccc(Oc2cc3cc(COP(=O)(N4CC4)N4CC4)oc3cc2[N+](=O)[O-])c1)N1CCOCC1` [Example 556], for which the IC50 in assay [1] was 1060 nM; in assay [2], < 10 nM.

Regarding `O=C1c2cc(Oc3cc4c(cc3[N+](=O)[O-])CCC4OP(=O)(N3CC3)N3CC3)ccc2CN1C1COC1` (stereo not drawn) [Example 162], the IC50 in assay [1] was 969 nM; in assay [2] (Homo sapiens, NCI-H460, 72 h), < 10 nM.

For `O=[N+]([O-])c1ccc2c(c1Oc1cccc(OC3CCCC3)c1)CCC2OP(=O)(N1CC1)N1CC1` (racemic) [Example 460], the IC50 is 1230 nM in assay [1] and < 10 nM in assay [2].

In the case of `O=[N+]([O-])c1ccc2c(c1Oc1cccc(OC3CCCC3)c1)CC[C@@H]2OP(=O)(N1CC1)N1CC1` [Example 469], the half-inhibitory concentration (IC50) in assay [1] is 1130 nM; in assay [2], < 10 nM.

`O=C(c1cc(Oc2c([N+](=O)[O-])ccc3c2CC[C@@H]3OP(=O)(N2CC2)N2CC2)ccc1F)N1CCCC1` [Example 259]: the IC50 is 1550 nM in assay [1] and < 10 nM in assay [2].

In the case of `O=C(c1cccc(Oc2c([N+](=O)[O-])ccc3c2CCC3OP(=O)(N2CC2)N2CC2)c1)N1CCCC1` (stereo not drawn) [Example 100], the values for the IC50 in assay [1] and in assay [2] were 618 nM and < 10 nM, respectively.

Regarding `O=C(c1cccc(Oc2cc3cc(COP(=O)(N4CC4)N4CC4)oc3cc2[N+](=O)[O-])c1)N1CCCC1` [Example 530, (6-nitro-5-(3-(pyrrolidine-1-carbonyl)phenoxy)benzofuran-2-yl)methyl di(aziridin-1-yl)phosphinate], the IC50 was 697 nM in assay [1] and < 10 nM in assay [2] (Homo sapiens, NCI-H460, 72 h).

In the case of `CC(OP(=O)(N1C[C@H]1C)N1C[C@H]1C)c1ccc([N+](=O)[O-])c(Oc2ccc(C(=O)N(C)C)cc2)c1` (stereo partly drawn) [Example 215], the IC50 in assay [1] was 3780 nM; in assay [2] (Homo sapiens, NCI-H460, 72 h), < 10 nM.

In the case of `COc1cncc(Oc2c([N+](=O)[O-])ccc3c2CC[C@H]3OP(=O)(N2CC2)N2CC2)c1` [Example 462], the IC50 in assay [1] was 917 nM; in assay [2], < 10 nM.

Turning to `O=[N+]([O-])c1ccc2c(c1Oc1cccc(-n3cc(F)cn3)c1)CCC2OP(=O)(N1CC1)N1CC1` (stereo not drawn) [Example 83], the IC50 in assay [1] is 1170 nM; in assay [2], < 10 nM.

For the compound `O=C(NC1CCC1)c1ccc(Oc2cc3c(cc2[N+](=O)[O-])CCC3OP(=O)(N2CC2)N2CC2)cc1` (stereo not drawn) [Example 516], the concentration for half-maximal inhibition (IC50) in assay [1] is 778 nM; in assay [2], < 10 nM.

For the compound `O=C(c1cc(Oc2c([N+](=O)[O-])ccc3c2CC[C@@H]3OP(=O)(N2CC2)N2CC2)ccc1F)N1CC(F)(F)C1` [Example 258], the values for the IC50 in assay [1] and in assay [2] were 2060 nM and < 10 nM, respectively.

Take `O=C1c2ccc(Oc3c([N+](=O)[O-])ccc4c3CCC4OP(=O)(N3CC3)N3CC3)cc2CN1C1CC1` (stereo not drawn) [Example 56]: the IC50 is 447 nM in assay [1] and < 10 nM in assay [2] (Homo sapiens, NCI-H460, 72 h).

With `Cc1coc(-c2ccc(Oc3c([N+](=O)[O-])ccc4c3CC[C@@H]4OP(=O)(N3CC3)N3CC3)cc2)n1` [Example 291], the IC50 in assay [1] was 1970 nM; in assay [2] (Homo sapiens, NCI-H460, 72 h), < 10 nM.

With `Cc1cnn(-c2cccc(Oc3c([N+](=O)[O-])ccc4c3CC[C@@H]4OP(=O)(N3CC3)N3CC3)c2)c1` [Example 429], the IC50 was 1960 nM in assay [1] and < 10 nM in assay [2] (Homo sapiens, NCI-H460, 72 h).

Consider `Cc1ncn(-c2cc(Oc3c([N+](=O)[O-])ccc4c3CC[C@@H]4OP(=O)(N3CC3)N3CC3)ccc2F)n1` [Example 440], for which the IC50 in assay [1] was 897 nM; in assay [2] (Homo sapiens, NCI-H460, 72 h), < 10 nM.

Consider `O=[N+]([O-])c1ccc2c(c1Oc1cccc(-n3ncnn3)c1)CC[C@@H]2OP(=O)(N1CC1)N1CC1` [Example 436], for which the IC50 in assay [1] was 138 nM; in assay [2] (Homo sapiens, NCI-H460, 72 h) it was < 10 nM.

Consider `O=[N+]([O-])c1ccc2c(c1Oc1ccc(O)c(-c3ccc(F)cn3)c1)CCC2OP(=O)(N1CC1)N1CC1` (stereo not drawn) [Example 333], for which the IC50 was 1310 nM in assay [1] and < 10 nM in assay [2].

For `CNC(=O)c1ccc(Oc2c([N+](=O)[O-])ccc3c2CCC3OP(=O)(N2CC2)N2CC2)cc1` (stereo not drawn) [Example 37], the IC50 in assay [1] was 178 nM; in assay [2], < 10 nM.

For the compound `CN(C)C(=O)c1ccc(Oc2c([N+](=O)[O-])ccc3c2CCC3OP(=O)(N2CC2)N2CC2)cc1` (single isomer, unassigned) [Example 17], the IC50 in assay [1] was 758 nM; in assay [2] (Homo sapiens, NCI-H460, 72 h) it was 10 to 50 nM.

On to `O=[N+]([O-])c1ccc2c(c1Oc1cccc(-c3cnn(C4CC4)c3)c1)CCC2OP(=O)(N1CC1)N1CC1` (stereo not drawn) [Example 95], for which the IC50 in assay [1] was 1310 nM; in assay [2], 50 to 100 nM.

On to `O=[N+]([O-])c1ccc2c(c1Oc1cccc(S(=O)(=O)C3CC3)c1)CC[C@H]2OP(=O)(N1CC1)N1CC1` [Example 456], for which the IC50 in assay [1] was 940 nM; in assay [2], < 10 nM.

For the compound `Cn1nccc1-c1cccc(Oc2c([N+](=O)[O-])ccc3c2CCC3OP(=O)(N2CC2)N2CC2)c1` (stereo not drawn) [Example 366], the IC50 in assay [1] is 636 nM; in assay [2], < 10 nM.

`O=C1OCCN1c1cccc(Oc2c([N+](=O)[O-])ccc3c2CCC3OP(=O)(N2CC2)N2CC2)c1` (stereo not drawn) [Example 71]: the IC50 is 31.9 nM in assay [1] and < 10 nM in assay [2].

For `CSc1ccc(Oc2c([N+](=O)[O-])ccc3c2CC[C@@H]3OP(=O)(N2CC2)N2CC2)cc1-c1nc(C)ns1` [Example 376], the concentration for half-maximal inhibition (IC50) was 1850 nM in assay [1] and < 10 nM in assay [2] (Homo sapiens, NCI-H460, 72 h).

Regarding `O=[N+]([O-])c1ccc2c(c1Oc1cccc(-c3ccc(F)cn3)c1)CCC2OP(=O)(N1CC1)N1CC1` (stereo not drawn) [Example 322], the IC50 in assay [1] is 1610 nM; in assay [2], < 10 nM.

Turning to `O=[N+]([O-])c1ccc2c(c1Oc1cccc(-c3ncccn3)c1)CCC2OP(=O)(N1CC1)N1CC1` (stereo not drawn) [Example 84], the half-maximal inhibitory concentration (IC50) in assay [1] is 1020 nM; in assay [2] (Homo sapiens, NCI-H460, 72 h), 10 to 50 nM.

Take `O=[N+]([O-])c1ccc2c(c1Oc1ccc(F)c(OC(F)F)c1)CCC2OP(=O)(N1CC1)N1CC1` (stereo not drawn) [Example 477]: the IC50 is 627 nM in assay [1] and < 10 nM in assay [2].

`O=[N+]([O-])c1ccc2c(c1Oc1ccc(F)c(-n3cccn3)c1)CC[C@@H]2OP(=O)(N1CC1)N1CC1` (single isomer, unassigned) [Example 403]: the 50% inhibitory concentration (IC50) in assay [1] was 1460 nM; in assay [2] (Homo sapiens, NCI-H460, 72 h), < 10 nM.

With `O=[N+]([O-])c1ccc2c(c1Oc1ccc(-c3ccc(F)cn3)c(F)c1)CCC2OP(=O)(N1CC1)N1CC1` (stereo not drawn) [Example 92], the concentration for half-maximal inhibition (IC50) in assay [1] was 1420 nM; in assay [2], < 10 nM.

In the case of `O=[N+]([O-])c1ccc2c(c1Oc1cccc(-c3nncs3)c1)CC[C@H]2OP(=O)(N1CC1)N1CC1` [Example 352], the IC50 is 268 nM in assay [1] and < 10 nM in assay [2] (Homo sapiens, NCI-H460, 72 h).

Consider `O=C(c1ccc(Oc2c([N+](=O)[O-])ccc3c2CCC3OP(=O)(N2CC2)N2CC2)cc1)N1CCOCC1` (stereo not drawn) [Example 34], for which the IC50 is 822 nM in assay [1] and 10 to 50 nM in assay [2] (Homo sapiens, NCI-H460, 72 h).

As for `C[C@@H]1CN1P(=O)(OC(c1ccc([N+](=O)[O-])c(Oc2cccc(C(=O)N(C)C)c2)c1)C(F)(F)F)N1C[C@H]1C` (stereo partly drawn) [Example 226], the IC50 is > 10000 nM in assay [1] and 10 to 50 nM in assay [2] (Homo sapiens, NCI-H460, 72 h).

In the case of `O=C1OCCN1c1ccc(Oc2cc3c(cc2[N+](=O)[O-])CCC3OP(=O)(N2CC2)N2CC2)cc1` (stereo not drawn) [Example 165], the IC50 in assay [1] is 89.7 nM; in assay [2] it was < 10 nM.

In the case of `Cc1noc(-c2cccc(Oc3c([N+](=O)[O-])ccc4c3CCC4OP(=O)(N3CC3)N3CC3)c2)n1` (stereo not drawn) [Example 120], the results for the IC50 in assay [1] and in assay [2] were 2080 nM and < 10 nM, respectively.

In the case of `Cn1cc(-c2ccc(Oc3c([N+](=O)[O-])ccc4c3CCC4OP(=O)(N3CC3)N3CC3)cc2)ccc1=O` (stereo not drawn) [Example 60], the IC50 in assay [1] was 1010 nM; in assay [2], ≥ 100 nM.

As to `C[C@H](OP(=O)(N1CC1)N1CC1)c1cc2cc(Oc3cccc(C4CC4)c3)c([N+](=O)[O-])cc2o1` [Example 562], the IC50 in assay [1] is 3040 nM; in assay [2], < 10 nM.

For `Cn1c(-c2cccc(Oc3c([N+](=O)[O-])ccc4c3CCC4OP(=O)(N3CC3)N3CC3)c2)cccc1=O` (stereo not drawn) [Example 74], the figures for the IC50 in assay [1] and in assay [2] were 1270 nM and ≥ 100 nM, respectively.
